# Assay: gradient 5% acetonitrile 3 min, to 50% in 2 min, to 85% in 15 min, held 3 min, 100 µL/min
# Details: column: Zorbax Extend-C18 2.1 x 50 mm; eluents: water / acetonitrile, 0.1% formic acid
# Method in brief: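 Pure standards were analyzed in mixtures of ~100 molecules using HPLC coupled to a quadrupole time-of-flight mass spectrometer, in both positive and negative ionization mode. Separation used a Zorbax Extend-C18 column (2.1 × 50 mm, 1.8 μm) at 100 μL/min, with water and acetonitrile each containing 0.1% formic acid. Dead and dwell volumes were 40 μL and 900 μL, and data were collected over 3 months. Retention time was read from computationally picked adduct peaks, each inspected manually.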
row,Compound,RP-LC retention time
1,Cc1noc(C)c1C(=O)N1CCCC1c1ccc(Cl)cc1 (centres undefined),855 s
2,COc1cccc(C(=O)Nc2nnc(C3CC(=O)N(c4ccccc4)C3)o2)c1 (centres undefined),690 s
3,Cc1noc(-c2ccccc2OC2CCNC2)n1 (centres undefined),590 s
4,Cc1ccc(-c2nc3cnccn3c2Nc2ccc(Cl)cc2)cc1,1000 s
5,CC(=O)N1CCc2ccccc2C1C(=O)N1CCN(c2ccc(F)cc2)CC1 (centres undefined),576 s
6,Cn1nc(CNC(=O)c2cccs2)c2ccccc21,764 s
7,O=C(NC1(c2nc(C3CC3)no2)CCCCC1)c1cc(-c2ccc(F)cc2)n[nH]1,905 s
8,CCn1c(=O)c(N2CCC(C(=O)NCCc3c[nH]c4ccc(OC)cc34)CC2)nc2cccnc21,864 s
9,Cn1cc(-c2ccc(F)cc2)cc1C(=O)NC1CC1,847 s
10,O=C(Nc1ccc(F)cc1)N1CCCC1c1nc(-c2ccccc2)no1 (centres undefined),947 s
11,O=C(NCCC1CCN(S(=O)(=O)c2ccccc2)CC1)Nc1ccccc1,856 s
12,Cc1cc(C)n(-c2ccnc(N3CCC(C(=O)NCC4CCCO4)CC3)n2)n1 (centres undefined),674 s
13,CCn1c(=O)oc2cc(-c3noc(COc4ccccc4)n3)ccc21,1020 s
14,O=C(CN1CCN(Cc2cccc(Cl)c2)C1=O)NC1CC1,683 s
15,COc1cccc(CC(=O)NC(C)C(=O)Nc2nc3ccccc3[nH]2)c1 (centres undefined),640 s
16,Cc1ccc(C)c(Cn2ccn3nc(-c4ccccc4)c(CO)c3c2=O)c1,1030 s
17,O=S(=O)(Nc1ccc(F)cc1)c1cccnc1Nc1ccc(Br)cc1,1150 s

row,Compound,RP-LC retention time
1,CN(CC1CCOC1)C(=O)NCc1cccc(F)c1 (centres undefined),675 s
2,CCN(CC)S(=O)(=O)c1ccc2c(c1)CC(C(=O)NCCc1ccc(C)cc1)N2C(C)=O (centres undefined),842 s
3,CC(NC(=O)Nc1ccccc1)C(c1ccccc1)N1CCN(C)CC1 (centres undefined),572 s
4,Cc1cccc(NC(=O)Cn2nc(N3CCC(C)CC3)c3ccccc3c2=O)c1,1160 s
5,Cc1ccc(Nc2c(-c3ccc(N(C)C)cc3)nc3ccc(C)cn23)cc1,839 s
6,O=C(Cn1ccn2nc(-c3ccccc3)c(CO)c2c1=O)Nc1ccc(Cl)cc1F,869 s
7,Cn1cnc(C(=O)N2CC(c3nc(CCOCC4CCOCC4)no3)C2)c1,579 s
8,CCCNC(=O)Cn1c(=O)cc(-c2nc(C(C)C)no2)c2ccccc21,835 s
9,COc1ccc(C2Cn3cnc(C(=O)N4CCC(C(=O)NCCC5=CCCCC5)CC4)c3CO2)cc1 (centres undefined),831 s
10,CCC(=O)Nc1ccc(N2CCN(CC(=O)N(C)C)CC2)cc1C(=O)O,573 s
11,CCn1c(C(=O)NCCc2ccccc2)cc2sc(Cl)cc21,1160 s
12,COc1ccccc1CNC(=O)C1CCN(Cc2cn(C)c3ccc(Cl)cc23)CC1,714 s
13,O=c1cc(CN(Cc2ccccc2)Cc2ccccc2)nc2ccc(Cl)cn12,745 s
14,COc1ccc(NC(=O)C2CCCN(c3nc4c(s3)c(C)nn4-c3ccc(OC)cc3)C2)cc1 (centres undefined),1080 s
15,COC(=O)CNC(=O)N1CCCCCC1c1ccc(C)cc1 (centres undefined),852 s
16,COc1ccc(N2CCN(c3nc4c(c(Nc5ccccc5)n3)C(=O)CCC4)CC2)cc1,1210 s
17,CSc1ccc(-c2nc3cnccn3c2Nc2ccc(C(C)C)cc2)cc1,1160 s

# Reference: the METLIN SMRT retention time set (Domingo-Almenara et al. 2019)
